Measurements from article PMC5937080, “Design, Synthesis and Biological Evaluation of Novel Peptide-Like Analogues as Selective COX-2 Inhibitors” (Iranian Journal of Pharmaceutical Research : IJPR, 2018).

Legend:
COX-2 = target: T1, COX-2 (Ovis aries, UniProt P79208); assay: biochemical; settings: for IC50: ovine COX-1/COX-2 assay kit, mean of two determinations, deviation < 10% of the mean
T1 construct: purchased Cayman chemical, MI, USA
T1 sequence (P79208 17-603): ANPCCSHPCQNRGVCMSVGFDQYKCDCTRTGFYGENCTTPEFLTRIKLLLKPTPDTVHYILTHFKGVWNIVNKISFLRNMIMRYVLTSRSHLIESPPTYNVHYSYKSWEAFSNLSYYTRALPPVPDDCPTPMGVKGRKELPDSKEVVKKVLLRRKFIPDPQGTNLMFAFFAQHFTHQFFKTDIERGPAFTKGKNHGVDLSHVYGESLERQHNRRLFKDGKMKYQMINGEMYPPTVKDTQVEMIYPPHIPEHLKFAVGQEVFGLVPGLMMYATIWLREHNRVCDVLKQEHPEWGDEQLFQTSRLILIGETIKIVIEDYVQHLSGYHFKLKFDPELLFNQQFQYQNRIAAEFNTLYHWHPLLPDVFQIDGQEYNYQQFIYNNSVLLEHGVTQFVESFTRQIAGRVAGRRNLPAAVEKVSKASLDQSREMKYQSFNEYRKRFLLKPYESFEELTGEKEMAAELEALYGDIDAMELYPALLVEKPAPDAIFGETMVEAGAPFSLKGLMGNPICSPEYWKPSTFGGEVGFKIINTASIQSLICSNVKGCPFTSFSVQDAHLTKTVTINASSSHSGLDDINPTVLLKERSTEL
Protocol: (§1) In-vitro cyclooxygenase (COX) inhibition assays
(§2) The assay was performed using an enzyme chemiluminescent kit (Cayman chemical, MI, USA) according to the previously reported method ([17]).

COX-1 = target: T2, COX-1 (Ovis aries, UniProt P05979); assay: biochemical; settings: ovine COX-1/COX-2 assay kit; mean of two determinations, deviation < 10% of the mean
T2 construct: purchased Cayman chemical, MI, USA
T2 sequence (P05979 25-600): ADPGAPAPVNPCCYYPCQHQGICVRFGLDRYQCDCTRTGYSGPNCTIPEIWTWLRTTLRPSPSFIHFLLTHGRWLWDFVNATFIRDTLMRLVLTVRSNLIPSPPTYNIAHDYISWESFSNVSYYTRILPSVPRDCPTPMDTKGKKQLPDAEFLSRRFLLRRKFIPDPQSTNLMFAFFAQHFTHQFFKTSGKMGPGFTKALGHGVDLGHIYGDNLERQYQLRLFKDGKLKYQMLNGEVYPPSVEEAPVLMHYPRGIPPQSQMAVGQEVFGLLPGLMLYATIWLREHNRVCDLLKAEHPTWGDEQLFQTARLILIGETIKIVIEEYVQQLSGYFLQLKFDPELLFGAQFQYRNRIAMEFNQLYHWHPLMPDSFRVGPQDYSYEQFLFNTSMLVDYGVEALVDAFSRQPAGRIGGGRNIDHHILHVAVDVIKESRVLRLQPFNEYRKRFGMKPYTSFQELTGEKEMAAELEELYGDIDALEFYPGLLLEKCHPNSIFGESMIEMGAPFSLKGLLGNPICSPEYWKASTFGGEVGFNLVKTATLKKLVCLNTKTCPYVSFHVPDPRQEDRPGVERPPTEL
Protocol: as §1, §2

Compound | S.I. In-vitro COX-2 selectivity index (COX-1 IC50/COX-2 IC50) (COX-2) | IC50 (COX-2) | IC50 (COX-1)
[N-]=[N+]=Nc1ccc(C(=O)NC(Cc2ccc(O)cc2)C(=O)O)cc1 (centres unmarked) [Compound 3d, p-N3Bz -Tyr] | 2.1 | 10.1 µM | 20.9 µM
[N-]=[N+]=Nc1ccc(C(=O)NC(Cc2ccccc2)C(=O)O)cc1 (centres unmarked) [Compound 1d, p-azidobenzoyl-phenylalanine] |  | > 100 µM | 55.5 µM
CS(=O)(=O)c1ccc(C(=O)NC(Cc2cnc[nH]2)C(=O)O)cc1 (stereo not drawn) [Compound 2c, p-MeSO2Bz -His] |  | > 100 µM | > 100 µM
[N-]=[N+]=Nc1ccc(C(=O)NC(Cc2c[nH]c3ccccc23)C(=O)O)cc1 (centres unmarked) [Compound 4d, p-N3Bz -Trp] |  | > 100 µM | > 100 µM
CS(=O)(=O)c1ccc(C(=O)NC(Cc2ccc(O)cc2)C(=O)O)cc1 (stereo not drawn) [Compound 3c, p-MeSO 2 Bz -Tyr] | 109.6 | 0.23 µM | 25.2 µM
CS(=O)(=O)c1ccc(C(=O)NC(Cc2c[nH]c3ccccc23)C(=O)O)cc1 (stereo not drawn) [Compound 4c, p-MeSO2Bz -Trp] | 184.4 | 0.09 µM | 16.6 µM
CS(=O)(=O)c1ccc(C(=O)NC(Cc2ccccc2)C(=O)O)cc1 (centres unmarked) [Compound 1c, p-(methylsulfonyl)benzoyl-phenylalanine] |  | > 100 µM | > 100 µM
[N-]=[N+]=Nc1ccc(C(=O)NC(Cc2c[nH]cn2)C(=O)O)cc1 (centres unmarked) [Compound 2d, p-N3Bz -His] | 351.2 | 0.08 µM | 28.1 µM
